The target of the assay is T1, XIAP BIR3 domain (Homo sapiens, UniProt P98170).
T1 construct: fluorescent probe 4 and the XIAP BIR3 domain (Sino Biological, Beijing, China) were used for all measurements; purchased Sino Biological, Beijing, China
Nature of the assay: Fluorescence polarization inhibition (competition) assay. Format: binding. To be noted: for inhibition at 50 µM: 0.5 h, antagonist 50 µM, inhibition of protein-probe interaction; for EC50 / Ki: XIAP BIR3 50 nM, fluorescent probe 4 2 nM. As to the method:
The fluorescence polarization assay was performed at r.t. in Corning 384-well black, polystyrene flat bottom plates (Corning, NY, USA) on a Synergy H4 Hybrid Reader (BioTek, Bad Friedrichshall, Germany). For fluorescence polarization measurements, (milipolarization units, mP) 484/20 nm excitation and 528/20 nm emission filters were selected. Phosphate buffer (pH 7.5) supplemented with γ-globulin (100 µg/mL) and NaN3 (0.02% w/v), fluorescent probe 4 and the XIAP BIR3 domain (Sino Biological, Beijing, China) were used for all measurements. All experiments were performed in duplicate. The obtained fluorescence polarization assay data were analyzed with Prism 5.0 Software (GraphPad Software, San Diego, ca.).
After a 15 min incubation at r.t., fluorescent probe 4 (2 nM) was added. The values were measured 30 min after the moment the probe was added. The assay was performed in phosphate buffer with a final DMSO concentration of 1.4% (v/v). […] In order to evaluate the quality and precision of the performed screening assay, we determined the Z´ factor as described by Zhang et al.. The obtained fluorescence polarization values were used to determine the percent inhibition, which was plotted as a function of the protein concentration. The EC50 and Ki values were calculated with GraphPad software (log(agonist) vs. response (variable slope) model) in combination with the web tool developed by Nikolovska-Coleska et al..
Fluorescence polarization inhibition assay and data analysis for 41m and 42m compounds was performed as described in the Material and Methods section of the manuscript. Briefly, 50 nM solution of the BIR3 XIAP protein in polarization buffer was added into phosphoroorganic compound solution (from 50 μM to 0.0537 nM). After 15 min incubation at r.t. the fluorescent probe 4 (2 nM) was added.
The values were read after 30 minutes from the moment the probe was added. The obtained fluorescence polarization values were used to determine the percentage of inhibition which was plotted as a function of the protein concentration (Supplementary Figure S4).
(1 picture or pasted object on this page, not shown here)

Like-named read-outs stand apart in the source and are kept apart here. Peptide text beside a SMILES is read from it.

T1 sequence (P98170 252-356 limits assumed): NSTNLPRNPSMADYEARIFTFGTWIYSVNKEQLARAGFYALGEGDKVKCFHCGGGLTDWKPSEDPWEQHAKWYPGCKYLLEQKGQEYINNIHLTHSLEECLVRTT

One may read the inhibition as the percentage by which the read-out fell short of the control. For the compound `CN[C@@H](C)C(=O)N[C@H](C(=O)N1CCC[C@H]1C(=O)NCP(=O)(C(C)C)C(C)C)C(C)C` [Compound 7], the inhibition at 50 µM is 32%.

As a reminder, the EC50 is the concentration giving half of the maximal effect. As to `CN[C@@H](C)C(=O)N[C@H](C(=O)N1CCC[C@H]1C(=O)NC(CCc1ccccc1)P(=O)(Oc1ccccc1)Oc1ccccc1)C(C)C` (stereo partly shown) [Compound 43], the inhibition at 50 µM worked out at 85.4%. The EC50 (read-out: EC50) was 17.2 µM. Under “read-out: log EC50 (converted)”, the EC50 was 17.2 µM.

One may read the Ki as a dissociation constant, usually derived from enzyme kinetics or from competition with a known ligand. With `CN[C@@H](C)C(=O)N[C@H](C(=O)N1CCC[C@H]1C(=O)NC(C)P(=O)(Oc1ccccc1)Oc1ccccc1)C1CCCCC1` (stereo partly drawn) [Compound 30, diphenyl (1-((S)-1-((S)-2-cyclohexyl-2-((S)-2-(methylamino)propanamido)acetyl)pyrrolidine-2-carboxamido)ethyl)phosphonate], the inhibition at 50 µM worked out at 69% and the Ki came out at 15 µM. For the same compound, the EC50 (read-out: EC50) was found to be 30.2 µM. The EC50 (read-out: log EC50 (converted)) is 30.3 µM.

As for `CC(C)[C@H](NC(=O)[C@H](C)N)C(=O)N1CCC[C@H]1C(=O)N[C@@H](Cc1c[nH]c2ccccc12)C(=O)O` [Compound 3, H2N-Ala-Val-Pro-Trp-OH, reference compound] (H-AVPW-OH), the EC50 (read-out: EC50) turned out to be 0.34 µM.

With `CN[C@@H](C)C(=O)N[C@H](C(=O)N1CCC[C@H]1C(=O)NC(C(C)C)P(=O)(Oc1ccccc1)Oc1ccccc1)C1CCCCC1` (stereo partly shown) [Compound 34], the inhibition at 50 µM turned out to be 70.5% and the Ki was determined as 11.8 µM. In addition, the EC50 (read-out: EC50) was 23.9 µM. For the same compound, for the setting “read-out: log EC50 (converted)”, the EC50 was 23.9 µM.

As for `CN[C@@H](C)C(=O)N[C@H](C(=O)N1CCC[C@H]1C(=O)NC(C(C)C)P(=O)(Oc1ccccc1)Oc1ccccc1)C(C)C` (stereo partly drawn) [Compound 33, diphenyl (2-methyl-1-((S)-1-((S)-3-methyl-2-((S)-2-(methylamino)propanamido)butanoyl)pyrrolidine-2-carboxamido)propyl)phosphonate], the inhibition at 50 µM stood at 58.5% and the Ki stood at 17.4 µM. Moreover, the EC50 (read-out: EC50) is 35 µM. Further, the EC50 (read-out: log EC50 (converted)) was 34.9 µM.

Take `CCC(NC(=O)[C@@H]1CCCN1C(=O)[C@@H](NC(=O)[C@H](C)NC)C(C)C)P(=O)(Oc1ccccc1)Oc1ccccc1` (stereo partly drawn) [Compound 31, diphenyl (1-((S)-1-((S)-3-methyl-2-((S)-2-(methylamino)propanamido)butanoyl)pyrrolidine-2-carboxamido)propyl)phosphonate]: the inhibition at 50 µM was 57% and the Ki worked out at 18.8 µM. The half-maximal effective concentration (EC50) (read-out: EC50) stood at 38 µM. In addition, the EC50 (read-out: log EC50 (converted)) is 38 µM.

`CN[C@@H](C)C(=O)N[C@H](C(=O)N1CCC[C@H]1C(=O)NC(C)P(=O)(Oc1ccc(C(C)(C)C)cc1)Oc1ccc(C(C)(C)C)cc1)C(C)C` (stereo partly drawn) [Compound 27, bis(4-(tert-butyl)phenyl) (1-((S)-1-((S)-3-methyl-2-((S)-2-(methylamino)propanamido)butanoyl)pyrrolidine-2-carboxamido)ethyl)phosphonate]: the inhibition at 50 µM was 83.3% and the Ki was found to be 10.5 µM. Moreover, under “read-out: EC50”, the EC50 amounted to 21.3 µM. The EC50 (read-out: log EC50 (converted)) was 21.3 µM.

In the case of `CN[C@@H](C)C(=O)N[C@H](C(=O)N1CCC[C@H]1C(=O)NCP(=O)(C(C)C)C(C)C)C1CCCCC1` [Compound 8], the inhibition at 50 µM was 41.3%.

With `CN[C@@H](C)C(=O)N[C@H](C(=O)N1CCC[C@H]1C(=O)NCP(=O)(c1ccc(C)cc1)c1ccc(C)cc1)C(C)C` [Compound 15, (S)-N-((di-p-tolylphosphoryl)methyl)-1-((S)-3-methyl-2-((S)-2-(methylamino)propanamido)butanoyl)pyrrolidine-2-carboxamide], the inhibition at 50 µM came out at 61.6% and the Ki amounted to 15.3 µM. In addition, where the note is “read-out: EC50”, the EC50 is 30.8 µM. The EC50 (read-out: log EC50 (converted)) is 30.8 µM.

For the compound `CN[C@@H](C)C(=O)N[C@H](C(=O)N1CCC[C@H]1C(=O)NCP(=O)(C(C)(C)C)C(C)(C)C)C(C)C` [Compound 5], the inhibition at 50 µM came to 63.2% and the Ki was found to be 14.7 µM. For the same compound, for the setting “read-out: EC50”, the EC50 worked out at 29.6 µM. In addition, the EC50 (read-out: log EC50 (converted)) was 29.6 µM.

The values above are taken from paper PMC7497679, “Structure-based design, synthesis, and evaluation of the biological activity of novel phosphoroorganic small molecule IAP antagonists” (Investigational New Drugs, 2020).
